The values below come from patent publication US10752640B2, “Compounds active towards bromodomains” (NUEVOLUTION A/S, priority 2014, dated 2020).

pIC50: −log10 of the molar value. Where only a bound is given, the exact number is not on record here.

One experiment addresses BRD4 protein (Homo sapiens, UniProt O60885). Description: FRET assay, half maximal inhibitory concentration (IC50). Type of experiment: binding. Conditions: BRD4 protein 50 nM, Biotin-H4KAc4 peptide 12.5 nM; A Further List of Classification. In a few lines:
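Acetylated histone H4 peptide binding (biotin-H4KAc4, 12.5 nM final) to BRD4 (50 nM final) detected by TR-FRET between streptavidin cryptate (2.4 nM) and GST-XL665 antibody (10 nM) in KF/BSA. Buffer: HEPES pH 7.5, NaCl, CHAPS. Compound dilutions from 50 μM in 12.5% DMSO were preincubated with protein for 30 min. Variable-slope IC50.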
With `CN1C(=O)CCc2cc(NC(=O)c3ccccc3N3CCOCC3)ccc21` [S1, N-(1-methyl-2-oxo-3,4-dihydroquinolin-6-yl)-2-morpholino-benzamide], the pIC50 (in general, the IC50 on a negative log10 scale, so that one unit is a factor of ten) was 5.00 to 6.00. Same read-out and setting: then `Cc1cc(O)nc2ccc(NC(=O)c3ccccc3N3CCOCC3)cc12` [S2, N-(2-hydroxy-4-methyl-6-quinolyl)-2-morpholino-benzamide], with 6.30 to 6.70. Same read-out and setting: then `Cc1ccc(C(=O)Nc2ccc3c(c2)CCC(=O)N3C)cc1S(=O)(=O)NC1CCCC1` [S3, 3-(cyclopentylsulfamoyl)-4-methyl-N-(1-methyl-2-oxo-3,4-dihydroquinolin-6-yl)benzamide], with 5.00 to 6.00; and `CN1C(=O)CCc2cc(NC(=O)c3cccnc3N3CCOCC3)ccc21` [S4, N-(1-methyl-2-oxo-3,4-dihydroquinolin-6-yl)-2-morpholino-pyridine-3-carboxamide], with 5.00 to 6.00; and `CN1CCN(c2ccccc2C(=O)Nc2ccc3c(c2)OCC(=O)N3)CC1` [S5, 2-(4-methylpiperazin-1-yl)-N-(3-oxo-4H-1,4-benzoxazin-7-yl)benzamide], with < 5.00. `CN1CCN(c2ccccc2C(=O)Nc2ccc3c(c2)CCC(=O)N3C)CC1` [S6, N-(1-methyl-2-oxo-3,4-dihydroquinolin-6-yl)-2-(4-methylpiperazin-1-yl)benzamide]: the pIC50 is < 5.00. For the compound `CN1CCN(c2ccccc2C(=O)Nc2ccc3c(c2)OCC(=O)N3C)CC1` [S7, N-(4-methyl-3-oxo-1,4-benzoxazin-7-yl)-2-(4-methylpiperazin-1-yl)benzamide], the pIC50 was < 5.00. Regarding `CN1C(=O)CCc2cc(NC(=O)c3ccccc3N3CCN(c4cnccn4)CC3)ccc21` [S8, N-(1-methyl-2-oxo-3,4-dihydroquinolin-6-yl)-2-(4-pyrazin-2-ylpiperazin-1-yl)benzamide], the pIC50 was < 5.00. In the case of `CN1C(=O)CCc2cc(NC(=O)c3cc([N+](=O)[O-])ccc3N3CCOCC3)ccc21` [S9, N-(1-methyl-2-oxo-3,4-dihydroquinolin-6-yl)-2-morpholino-5-nitro-benzamide], the pIC50 is < 5.00. For the compound `Cc1cc(O)nc2ccc(NC(=O)c3ccccc3N3CCN(C)CC3)cc12` [S10, N-(2-hydroxy-4-methyl-6-quinolyl)-2-(4-methylpiperazin-1-yl)benzamide], the pIC50 is 5.00 to 6.00. Regarding `Cc1cc(O)nc2ccc(NC(=O)c3ccccc3N3CCN(c4cnccn4)CC3)cc12` [S11, N-(2-hydroxy-4-methyl-6-quinolyl)-2-(4-pyrazin-2-ylpiperazin-1-yl)benzamide], the pIC50 is 5.00 to 6.00. Take `Cc1cc(O)nc2ccc(NC(=O)c3cc(S(N)(=O)=O)ccc3N3CCOCC3)cc12` [S12, N-(2-hydroxy-4-methyl-6-quinolyl)-2-morpholino-5-sulfamoyl-benzamide]: the pIC50 was > 6.70. The compound `CN1C(=O)CCc2cc(NC(=O)c3cc(S(N)(=O)=O)ccc3N3CCOCC3)ccc21` [S13, N-(1-methyl-2-oxo-3,4-dihydroquinolin-6-yl)-2-morpholino-5-sulfamoyl-benzamide] had a pIC50 of 5.00 to 6.00.

Consider `Cc1cc(O)nc2ccc(NC(=O)c3cc(N4C(=O)CCC4=O)ccc3N3CCOCC3)cc12` [S14, 5-(2,5-dioxopyrrolidin-1-yl)-N-(2-hydroxy-4-methyl-6-quinolyl)-2-morpholino-benzamide], for which the pIC50 is 6.30 to 6.70. On the same count and under the same terms, then `Cc1cc(O)nc2ccc(NC(=O)c3cc(NS(=O)(=O)c4ccccc4)ccc3N3CCN(C)CC3)cc12` [S15, 5-(benzenesulfonamido)-N-(2-hydroxy-4-methyl-6-quinolyl)-2-(4-methylpiperazin-1-yl)benzamide], with 6.00 to 6.30.

In turn, `CCS(=O)(=O)Nc1ccc(N2CCN(C)CC2)c(C(=O)Nc2ccc3nc(O)cc(C)c3c2)c1` [S16, 5-(ethylsulfonylamino)-N-(2-hydroxy-4-methyl-6-quinolyl)-2-(4-methylpiperazin-1-yl)benzamide] showed a pIC50 of 5.00 to 6.00. For `Cc1cc(O)nc2ccc(NC(=O)c3cc([N+](=O)[O-])ccc3N3CCOCC3)cc12` [S17, N-(2-hydroxy-4-methyl-6-quinolyl)-2-morpholino-5-nitro-benzamide], the pIC50 is > 6.70.

Still in this experiment, the particulars now being: BRD4 protein 50 nM, Biotin-H4KAc4 peptide 12.5 nM; List of Classification.
Take `Cc1cc(O)nc2ccc(NC(=O)c3cc(N4CCOCC4)cnc3N3CCOCC3)cc12` [Compound-186, N-(2-hydroxy-4-methylquinolin-6-yl)-2,5-dimorpholinonicotinamide]: the pIC50 is > 6.70. Turning to `Cc1cc2nc(O)cc(C)c2cc1NC(=O)c1cc(-c2c(C)noc2C)cnc1N1CCOCC1` [Compound-188, 5-(3,5-dimethylisoxazol-4-yl)-N-(2-hydroxy-4,7-dimethylquinolin-6-yl)-2-morpholinonicotinamide], the pIC50 was > 6.70. On to `COc1cc(NC(=O)c2cc(-c3ccoc3)cnc2N2CCOCC2)cc2c(C)cc(O)nc12` [Compound-189, 5-(furan-3-yl)-N-(2-hydroxy-8-methoxy-4-methylquinolin-6-yl)-2-morpholinonicotinamide], for which the pIC50 was > 6.70. In turn, `COc1cc2nc(O)cc(C)c2cc1NC(=O)c1cc(-c2ccoc2)cnc1N1CCOCC1` [Compound-190, 5-(furan-3-yl)-N-(2-hydroxy-7-methoxy-4-methylquinolin-6-yl)-2-morpholinonicotinamide] had a pIC50 of 5.00 to 6.00.

As to `Cc1cc2nc(O)cc(C)c2cc1NC(=O)c1cc(-c2ccoc2)cnc1N1CCOCC1` [Compound-191, 5-(furan-3-yl)-N-(2-hydroxy-4,7-dimethylquinolin-6-yl)-2-morpholinonicotinamide], the pIC50 is > 6.70. For the compound `Cc1cc2nc(O)cc(C)c2cc1NC(=O)c1cc(-c2nnn(C)n2)cnc1N1CCOCC1` [Compound-195, N-(2-hydroxy-4,7-dimethylquinolin-6-yl)-5-(2-methyl-2H-tetrazol-5-yl)-2-morpholinonicotinamide], the negative logarithm of the IC50 (pIC50) is > 6.70.

Take `Cc1cc2nc(O)cc(C)c2cc1NC(=O)c1cc(-c2nnnn2C)cnc1N1CCOCC1` [Compound-196, N-(2-hydroxy-4,7-dimethylquinolin-6-yl)-5-(1-methyl-1H-tetrazol-5-yl)-2-morpholinonicotinamide]: the pIC50 is < 5.00. In the case of `Cc1cc(O)nc2ccc(NC(=O)c3cc(C#N)ncc3N3CCC(F)C3)cc12` (centres unmarked) [Compound-197, 2-cyano-5-(3-fluoropyrrolidin-1-yl)-N-(2-hydroxy-4-methylquinolin-6-yl) isonicotinamide], the pIC50 was 6.00 to 6.30. `Cc1cc(O)nc2ccc(NC(=O)c3cc(S(=O)(=O)N(C)C)cnc3N3CCC(F)C3)cc12` (centres unmarked) [Compound-199, 5-(N,N-dimethylsulfamoyl)-2-(3-fluoropyrrolidin-1-yl)-N-(2-hydroxy-4-methylquinolin-6-yl)nicotinamide]: the pIC50 is > 6.70. Same read-out and setting: then `Cc1cc(-c2cnc(N3CCOCC3)c(C(=O)Nc3cc4c(C)cc(O)nc4cc3C)c2)on1` [Compound-200, N-(2-hydroxy-4,7-dimethylquinolin-6-yl)-5-(3-methylisoxazol-5-yl)-2-morpholinonicotinamide], with 6.30 to 6.70; and `COc1cc2nc(O)cc(C)c2cc1NC(=O)c1cc(-c2nnc(C)o2)ccc1N1CCOCC1` [Compound-201, N-(2-hydroxy-7-methoxy-4-methylquinolin-6-yl)-5-(5-methyl-1,3,4-oxadiazol-2-yl)-2-morpholinobenzamide], with > 6.70. With `Cc1cc(O)nc2ccc(NC(=O)c3cc(C(N)=O)ncc3N3CCCC3)cc12` [Compound-202, N4-(2-hydroxy-4-methylquinolin-6-yl)-5-(pyrrolidin-1-yl)pyridine-2,4-dicarboxamide], the pIC50 was > 6.70. The same measure, in the same setting: then `Cc1cc(O)nc2ccc(NC(=O)c3cc(-c4nnn[nH]4)ncc3N3CCCC3)cc12` [Compound-203, N-(2-hydroxy-4-methylquinolin-6-yl)-5-(pyrrolidin-1-yl)-2-(1H-tetrazol-5-yl) isonicotinamide], with > 6.70.

In the case of `Cc1cc(O)nc2ccc(NC(=O)c3cc(C(C)O)ccc3N3CCCC3c3ccccn3)cc12` (centres unmarked) [Compound-206, N-(2-hydroxy-4-methylquinolin-6-yl)-5-(1-hydroxyethyl)-2-(2-(pyridin-2-yl)pyrrolidin-1-yl)benzamide], the pIC50 is > 6.70.

With `CC(=O)c1cc(C(=O)Nc2ccc3nc(O)cc(C)c3c2)c(N2CCOCC2)cn1` [Compound-207, 2-acetyl-N-(2-hydroxy-4-methylquinolin-6-yl)-5-morpholinoisonicotinamide], the pIC50 was > 6.70. On to `Cc1cc(O)nc2ccc(NC(=O)c3cc(C(C)O)ncc3N3CCOCC3)cc12` (centres unmarked) [Compound-208, N-(2-hydroxy-4-methylquinolin-6-yl)-2-(1-hydroxyethyl)-5-morpholinoisonicotinamide], for which the pIC50 was > 6.70. For `CC(=O)c1cc(C(=O)Nc2ccc3nc(O)cc(C)c3c2)c(N2CCC(F)C2)cn1` (centres unmarked) [Compound-209], the pIC50 was > 6.70.

Regarding `Cc1cc(O)nc2ccc(NC(=O)c3cc(C(C)O)ncc3N3CCC(F)C3)cc12` (centres unmarked) [Compound-210, 5-(3-fluoropyrrolidin-1-yl)-N-(2-hydroxy-4-methylquinolin-6-yl)-2-(1-hydroxyethyl) isonicotinamide], the pIC50 was > 6.70. In turn, `Cc1cc(O)nc2ccc(NC(=O)c3cc(C#N)ncc3N3CCCC3CN(C)C)cc12` (centres unmarked) [Compound-211] had a pIC50 of 6.30 to 6.70. On to `CC(=O)c1cc(C(=O)Nc2ccc3nc(O)cc(C)c3c2)c(N2CCCC2CN(C)C)cn1` (centres unmarked) [Compound-212, 2-acetyl-5-(2-((dimethylamino)methyl)pyrrolidin-1-yl)-N-(2-hydroxy-4-methylquinolin-6-yl)isonicotinamide], for which the pIC50 was > 6.70. On the same count and under the same terms, the same measure for `Cc1cc(O)nc2ccc(NC(=O)c3cc(C(C)O)ncc3N3CCCC3CN(C)C)cc12` (centres unmarked) [Compound-213, 5-(2-((dimethylamino)methyl)pyrrolidin-1-yl)-N-(2-hydroxy-4-methylquinolin-6-yl)-2-(1-hydroxyethyl)isonicotinamide]: > 6.70.
